Here are results for seven molecules from paper PMC7571124 (Molecules, 2020).

Read-outs that look alike come from different tables or passages of the source. Residues, ends and D or L forms follow the SMILES beside them.

The subject of data set [1] is avian influenza A A/CHK/MX/1994 H5N2 virus. Briefly: microbe, parasite or virus in culture. In kind it is cell-based. The following applies: for IC50: read-out: IC50 of viral replication inhibition.
Data set [2] has as its target neuraminidase of A/CHK/MX/1994 H5N2 (Influenza A virus, UniProt Q0A2F2). In kind it is biochemical, Influenza A virus A/Chicken/Mexico/31381-7/1994 (H5N2).
Data set [3] deals with T1, neuraminidase of A/PR/8/34 H1N1 (Influenza A virus, UniProt P03468).
T1 construct: Samples of cell supernatant infected with whole virus were used as source of enzymes; host or cells: MDCK cells infected with the virus; clarified culture supernatant
Briefly: biochemical. In kind it is biochemical, Influenza A virus A/Puerto Rico/8/34 (H1N1).

A short description of data set [4]: in vitro. The settings on record: dog.
In data set [5] the test system is MDCK cells. The following applies: dog.

The term IC50 denotes the midpoint of a concentration-inhibition curve. For “3-(propylaminosulfonyl)-4-chlorobenzoic acid [STL]”, the “inhibition of viral replication (lytic plaques)” value (from here on “inhibition of viral replication”) in data set [1] (at 100 μM) is on record as “losing this effect”; in data set [1] (at 1 mM), “completely inhibited”. The molecule also showed an IC50 in data set [2] of 24.8 ± 1.3 mM.

One may read the Ki as a measure of affinity in units of concentration, obtained from inhibition or displacement. A higher Ki goes with weaker binding. For `CSCCC(NC(=O)C(Cc1ccccc1)NC(C)=O)C(=O)O` (stereo not drawn) [AAMOL, N-acetylphenylalanylmethionine] (Ac-Phe-Met-OH; configuration not given here), in data set [3], half-maximal inhibition (IC50) required 57 ± 1.1 mM, the Ki is 15.3 mM and the inhibition mechanism result is reported as “competitive”. Moreover, the “inhibition of viral replication” value in data set [1] (at 1 μM) is recorded as “no inhibition effect was observed”. Besides, the inhibition mechanism entry in data set [2] is recorded as “competitive”. The molecule further gave a CC50 in data set [4] of 0.016 ± 0.0015 mM.

As for `O=C1O[C@H]([C@@H](O)CO)C(O)=C1O` [CIV, ascorbic acid], 32 ± 1.5 mM corresponded to half-maximal inhibition in data set [3] (IC50). The same molecule yielded a Ki in data set [3] of 26.4 mM. Also, the inhibition mechanism entry in data set [3] and in data set [2] was “noncompetitive” each time. Also, the “inhibition of viral replication” value in data set [1] (at 1 μM) is reported as “no inhibition effect was observed”. The CC50 in data set [4] worked out at 0.0003 mM; in data set [5], 0.00055 ± 0.0011 mM.

Take `Cc1ccc(C)c(NC(=O)CC(C(=O)O)N2CCNCC2)c1` (stereo not shown) [FMOL, propanoic 3-[(2,5-dimethylphenyl)carbamoyl]-2-(piperazin-1-yl) acid]: the “inhibition of viral replication” value in data set [1] (at 100 μM) was “affected the size and number of plaques”; in data set [1] (at 1 mM), “affected the size and number of plaques”.

For orientation: Km means the concentration of substrate that gives half-maximal velocity. By Vmax is commonly meant the top rate of the reaction or transport when substrate is in excess. Consider `CC(=O)N[C@H]1[C@H]([C@H](O)[C@H](O)CO)O[C@@](Oc2ccc3c(C)cc(=O)oc3c2)(C(=O)O)C[C@@H]1O` [MUNANA, 2′-O-(4-methylumbelliferyl)-α-dN-acetylneuraminic acid], for which, in data set [3], the Km was found to be 142 µM and the Vmax came out at 2.77 µmol/min. In addition, in data set [2], the Km was 106 µM and the Vmax was determined as 5.2 µmol/min.

Take `CCCN(CCC)S(=O)(=O)c1ccc(C(=O)O)cc1` [ORP, 4-(dipropylsulfamoyl) benzoic acid]: the IC50 in data set [3] was 23 ± 1.2 mM; in data set [1] (Influenza A virus, H5N2, MDCK, in Canis lupus familiaris), 0.157 mM. Also, the Ki in data set [3] worked out at 10.5 mM. For the same molecule, the inhibition mechanism entry in data set [3] and in data set [2] was “competitive” each time. Further, the “inhibition of viral replication” value in data set [1] (at 1 mM) was “only lowered the number of plaques”.

For the molecule `CC(=O)N[C@H]1[C@H]([C@H](O)[C@H](O)CO)OC(C(=O)O)=C[C@@H]1N=C(N)N` [Zanamivir, zanamivir], in data set [1], the lytic plaque formation result was “not detected” and the IC50 worked out at 0.000741 mM. In addition, in data set [2], the inhibition mechanism entry is listed as “competitive”.
